In article PMC3404088, “Development of a Small D-Enantiomeric Alzheimer’s Amyloid-β Binding Peptide Ligand for Future In Vivo Imaging Applications” (PLoS ONE, 2012):

Assays:
Aβ1–42 fibrils [1] = molecular target: T1, Aβ1–42 fibrils (Homo sapiens, UniProt P05067); test: Surface plasmon resonance (Biacore 1000), semi-quantitative binding to immobilized Aβ1–42 fibrils; conditions: 50 µg/ml, PBS pH 7.4
T1 construct: Aβ1–42 was dissolved in hexafluoroisopropanol (HFIP)
Experimental: Aβ1–42 was dissolved in hexafluoroisopropanol (HFIP). After overnight incubation, HFIP was removed by evaporation. The Aβ1–42 film was dissolved in PBS buffer pH 7.4 to a concentration of 1 mg/ml and incubated for 7 days at 37°C. For the measurements, a Biacore 1000 (GE Healthcare) instrument was used. Aβ1–42 fibrils (6800 RU) were immobilized on a CM5 sensorchip (GE Healthcare) via amine coupling. The running and sample buffer was PBS, pH 7.4. To allow comparison between the ACI-80 compounds, but to avoid potential over-interpretation of the data by fitting multiple k on and k off values for a yet undefined number of different binding sites, only two values have been taken for further evaluation. Response units achieved under identical injection conditions allow comparison of binding strengths of the compounds. Dissociation rates among the compounds have been compared by measuring the remaining response units 60 s after end of injection as a measure for dissociation (k off). All measurements have been carried out using the same flow cells with identical concentrations and injection conditions. ACI-80-Kϕ derivatives were injected as analytes in a concentration of 50 µg/ml at a flow rate of 5 µl/min for 2 minutes at ambient temperature. The data were evaluated using BiaEvaluation 4.1. The interactions between Aβ1–42 and ACI-80-Kϕ derivatives are given in resonance units (RU) and in % of ACI-80-Kϕ response units. […] Aβ1–42 fibrils were immobilized on a Biacore sensor-chip as described in the methods section, and the interactions of the ϕ-labeled ACI-80 derivatives were measured and compared with original ACI-80-Kϕ. […] Therefore we decided for semi-quantitative comparison between all compounds only. The maximal responses in resonance units (RU) of the ϕ-labeled ACI-80 derivatives during the analyte injection and the remaining response 60 s after injection end (as a semi-quantitative measure for the dissociation rate), have been related to the respective values obtained from identical concentrations of ACI-80-Kϕ in percent.

Aβ1–42 monomers = molecular target: T2, Aβ1–42 monomers (Homo sapiens, UniProt P05067); test: ELISA, compound binding to Aβ1–42 peptide film (predominantly monomers); conditions: 10 µg/ml compound; for binding value, binding Aβ1–42 monomers: optical density after pNPP incubation
T2 construct: Aβ1–42 peptide film was prepared from lyophilized powder (Bachem); purchased Bachem
Experimental: (§1) Aβ1–42 peptide film was prepared from lyophilized powder (Bachem). The powder was reconstituted in HFIP to a final concentration of 1 mM, sonicated for 15 min at room temperature (RT), agitated overnight (ON), and aliquoted into non-siliconized microcentrifuge tubes (12 µl corresponding to 55 µg). The HFIP was evaporated under a stream of argon. The resulting peptide film was vacuum dried for 10 min and stored at -80°C. For direct use as peptide film, an aliquot of Aβ1–42 peptide film was reconstituted with 0.54% dimethylsulphoxide (DMSO) in phosphate buffered saline (PBS) to obtain a final concentration of 10 µg/ml and then used for the ELISA as described below. To prepare fibrils, 55 µg aliquot of peptide film was dissolved in 55 µl of 50 mM Tris-HCl, pH 7.4 and incubated at 37°C for five days. Next, the sample was centrifuged (10’000 rpm for 5 min) and the pellet was diluted in 50 mM Tris-HCl, pH 7.4.
(§2) Aβ1–42 peptide preparations were diluted in 0.05 M bicarbonate-carbonate buffer pH 9.6, to the final concentration of 10 µg/ml and coated onto ELISA plates (MaxiSorp, Nunc). After blocking (PBS; 0.05% Tween; 1% BSA), plates were incubated with 2- or 3-fold dilutions of D-compounds (starting concentration: 10 µg/ml) and incubated for 2 h at 37°C. Plates were then washed and incubated for 2 h at 37°C with the detection antibody Rabbit-a-fluorescein isothiocyanate-AP (Sigma; 1∶10’000 dilution) followed by the incubation for 2.5 h at room temperature (RT) with 1 mg/ml of phosphatase substrate (pNPP, Sigma). The absorbance signal was read at 405 nm wavelength using a Tecan plate reader (Tecan Group Lt, Männedorf, Switzerland).
(§3) ELISA plates (MaxiSorp, Nunc) were coated with anti-Aβ antibody 6E10 (Covance) at a concentration of 5 µg/ml. Either monomeric Aβ1–42 peptide film (mainly monomeric) or Aβ1–42 fibrils, which were prepared as described above, were diluted in PBS to the final concentration 10 µg/ml and mixed with 10-fold dilutions of D-peptide compounds in Eppendorf tubes (starting concentration of D-peptide compounds: 10 µg/ml). The tubes were incubated for 2 h at 37°C. Next, samples were distributed onto the ELISA plate and kept for 2 h at 37°C. Plates were washed and incubated for 2 h at 37°C with the detection antibody Rabbit-a-fluorescein isothiocyanate-AP (Sigma; 1∶10′000 dilution) following the incubation overnight (ON) at RT with 1 mg/ml of phosphatase substrate (pNPP, Sigma). The absorbance signal was read at 405 nm wavelength using the Tecan plate reader (Tecan Group Ltd, Männedorf, Switzerland).
(§4) To verify the SPR results, ELISA was employed to assay the interaction of the ACI-80 derivatives ACI-80-Kϕ, ACI-81-Kϕ, ACI-82-Kϕ, ACI-83-Kϕ, ACI-84-Kϕ, ACI-85-Kϕ, ACI-86-Kϕ, ACI-87-Kϕ, [^19F]-ACI-87-Kϕ, ACI-88-Kϕ, [^19F]-ACI-88-Kϕ, ACI-89-Kϕ, [^19F]-ACI-89-Kϕ) with Aβ1–42 fibrils and Aβ peptide film in solution containing mostly monomers and smaller oligomers (Table 4). To avoid any bias by possible conformational influences the ELISA has been carried out in two versions, once with immobilized antibody and once with immobilized Aβ1–42 as described in the methods section. Both assays yielded similar results and confirmed each other. […] Panels A and B in Figure 2 show the results for binding to Aβ1–42 fibrils and panels C and D in Figure 2 show the results for binding to freshly prepared Aβ1–42 peptide film, which contains mostly monomeric Aβ. In Table 4, the performance of the peptides is expressed relative to that of ACI-80-Kϕ.

[2] = molecular target: T3, Aβ plaques in brain sections of transgenic APP (V717I) x PS1 (A246E) mice (Homo sapiens, UniProt P05067); test: Ex vivo staining of mouse brain slices by FITC labeled compounds; conditions: 0.01 mg/ml ϕ-labeled compound, 2 h; 10 µm cryostat sections; fluorescence microscopy
T3 construct: triple image overlay of respective stains reveal that the ϕ-compounds identify plaques; from tissue; host or cells: brain cryosections of APP (V717I) x PS1 (A246E) transgenic mice
Experimental: In vitro tissue section staining was performed according to previously described protocols with slight modifications. Mouse brains were obtained from male transgenic (tg) APP (London mutation V717l) x PS1 (A246E) mice aged 13–21 months and from female wild type (wt) mice aged 9–10 months. The mice were anesthetized and transcardially perfused with saline. The brains were removed and snap frozen. 10 µm thick sagittal cryostat sections through the whole mouse brain were produced and mounted onto glass slides. ϕ-labeled compounds were applied to investigate binding. Thus, the slides were thawed, washed in PBS and fixed in 4% paraformaldehyde (20 min at RT) just before incubation with ϕ-labeled compounds. One series of sections was treated only with fluorescent compounds (0.01 mg/ml, incubation time 2 h) while another series of sections were incubated with anti-Aβ antibody 6E10 at 1∶500 dilution (SIG-39320, Covance; final antibody concentration was 2 µg/ml) in addition to ϕ-labeled compounds (0.01 mg/ml). The slices were washed in PBS. The sections incubated with ϕ-labeled compound and 6E10 antibody were further incubated for 2 h at RT with Goat-anti-Mouse IgG1– AlexaFluor 555 (A21127, Invitrogen, 1∶1000 dilution) and washed with PBS. Finally, all sections were counterstained with 4’–6-Diamidino-2-phenylindole (DAPI, 32670, Sigma, incubation 5 min at RT) for the visualization of cell nuclei. The slides were mounted using Prolong Gold Antifade mounting medium (P36930, Invitrogen) and coverslipped.
The tissues were analyzed using a fluorescent Zeiss Axioscope 2 Plus microscope using the AxioVision 4 image analysis software.
A further series of slices was stained using a primary anti-fluorescein isothiocyanate antibody combined with alkaline phosphatase reaction for visualization of ϕ-labeled peptides. Briefly, the sections were treated with blocking solution (10% normal goat serum (NGS), 0.25% Triton X-100 in PBS for 1 h at RT) and incubated with primary antibody (rabbit-anti-FITC; Invitrogen) at a dilution of 1∶500. The sections were then washed and incubated for 2 h at RT with the secondary antibody goat-anti-rabbit-alkaline phosphatase (Sigma) at a dilution of 1∶100. After washing, the slides were incubated with BCIP/NBT substrate (Sigma) for 3 min, washed, dehydrated and mounted using Eukitt mounting medium.

Aβ1–42 fibrils [3] = molecular target: T1, Aβ1–42 fibrils; test: ELISA, compound binding to Aβ1–42 fibrils; conditions: for binding value, binding Aβ1–42 fibrils: optical density after pNPP incubation
Experimental: as §1, §2, §3, §4

[4] = value of one single experiment only
[5] = 10 µg/ml compound, value of one single experiment only

Substance	off-rate based on remaining response 60 s after injection end (Aβ1–42 fibrils [1])	binding value, binding Aβ1–42 monomers (Aβ1–42 monomers; [4])	staining / recognition of Aβ plaques [2]	ELISA binding to Aβ1–42 (Aβ1–42 fibrils [3])	binding value, binding Aβ1–42 fibrils (Aβ1–42 fibrils [3]; [5])	SPR response as compared to ACI-80-Kϕ (Aβ1–42 fibrils [1])	% binding relative to ACI-80-Kϕ, Aβ1–42 monomers (Aβ1–42 monomers; ACI-80-Kϕ = 100)	binding value, binding Aβ1–42 monomers (Aβ1–42 monomers; average of two or three experiments)	% binding relative to ACI-80-Kϕ, Aβ1–42 fibrils (Aβ1–42 fibrils [3]; 10 µg/ml compound, ACI-80-Kϕ = 100)	binding value, binding Aβ1–42 fibrils (Aβ1–42 fibrils [3]; 10 µg/ml compound, average of two or three experiments)
SHYRHISPAQKK[^19F]ϕ [[^19F]-ACI-88-Kϕ, fluorinated ϕ-labeled ACI-88]	slowest off-rate of all tested compounds	*1.05	readily recognized amyloid plaques	bound well to Aβ1–42 fibrils	*1.76					
ZSHYRHISPAQVKϕ [ACI-81-Kϕ, ϕ-labeled ACI-80 derivative, Q1Z]						not significantly increased	27%	0.13	22%	0.20
QSHYRHISPAQKK[^19F]ϕ [[^19F]-ACI-87-Kϕ, fluorinated ϕ-labeled ACI-87]		*0.86	readily recognized amyloid plaques	bound well to Aβ1–42 fibrils	*1.26	decreased response in comparison to the compound without label				
